The text below walks through data of PubChem BioAssay AID1259408 (Genetic Toxicology Data Bank (GENE-TOX), 2018).

This data set has as its system GENE-TOX genotoxicity assays, various organisms and cells. In words: GENE-TOX mutagenicity studies. As to conditions: for call: Assay Type: In vivo carcinogenicity studies, Assay Code: CCG+.
Where [1] appears, read: Species/Cell Type: Drosophila melanogaster, Assay Type: Sex-linked recessive lethal gene mutation, Assay Code: SRL+, Evaluation Type: Evaluation A (Pre-1980).
Setting [2] is: Species/Cell Type: Drosophila melanogaster, Sex: Male, Assay Type: Heritable translocation test, chromosome aberrations, Assay Code: DHTT, Evaluation Type: Evaluation A (Pre-1980).
Setting [3] is: Species/Cell Type: Human lymphocytes, Assay Type: Sister-chromatid exchange (SCE) in vitro, Assay Code: SCLT, Evaluation Type: Evaluation B (Post-1980).
[4] abbreviates: Species/Cell Type: Human, Assay Type: Sister-chromatid exchange (SCE) in vitro, Assay Code: SC1T, Evaluation Type: Evaluation B (Post-1980).
The mark [5] stands for this setting: Species/Cell Type: Saccharomyces cerevisiae, Assay Type: Mitotic recombination or gene conversion, Assay Code: YEC+, Evaluation Type: Evaluation A (Pre-1980).
Where [6] appears, read: Species/Cell Type: Salmonella typhimurium (one or more of the five standard strains: TA98, TA100, TA1535, TA1537, and TA1538), Assay Type: Histidine reverse gene mutation, Ames assay, Assay Code: SAL+*, Activation: With metabolic activation, Evaluation Type: Evaluation A (Pre-1980).
[7] abbreviates: Species/Cell Type: Salmonella typhimurium (one or more of the five standard strains: TA98, TA100, TA1535, TA1537, and TA1538), Assay Type: Histidine reverse gene mutation, Ames assay, Assay Code: SALT, Evaluation Type: Evaluation A (Pre-1980).
Setting [8] is: Species/Cell Type: Nonhuman, Evaluation Type: Evaluation A (Pre-1980).
Setting [9] is: Species/Cell Type: Nonhuman, Assay Type: Sister-chromatid exchange (SCE) in vitro, Assay Code: SC2T, Evaluation Type: Evaluation B (Post-1980).

Structures are written as SMILES. Activity calls are given as the source filed them. How the calls were made is not given here.

On to `O=C1NS(=O)(=O)c2ccccc21`, for which the mutagenic call by setting is: (Species/Cell Type: Allium cepa, Assay Type: Chromosome aberrations, Assay Code: ALC+D, Dose Response: With dose response, Evaluation Type: Evaluation A (Pre-1980)) “active; positive”; under setting [1], “active; positive”; under setting [2], “no conclusion”; (Species/Cell Type: Escherichia coli polA (W3110 vs P3478), Assay Type: Rec-assay, DNA effects (bacterial DNA repair), Assay Code: RE2-, Evaluation Type: Evaluation A (Pre-1980)) “inactive; negative”; (Species/Cell Type: Escherichia coli polA (W3119 vs P3478), Assay Type: Rec-assay, DNA effects (bacterial DNA repair), Assay Code: RE1-, Evaluation Type: Evaluation A (Pre-1980)) “inactive; negative”; (Species/Cell Type: Human lymphocytes, Assay Type: Sister-chromatid exchange (SCE) in vitro, Assay Code: SCL+D, Dose Response: With dose response, Evaluation Type: Evaluation A (Pre-1980)) “active; positive”. Moreover, the mutagenic call under setting [3] is given as “no conclusion”; the mutagenic call (Species/Cell Type: Human, Assay Type: Sister-chromatid exchange (SCE) in vitro, Assay Code: SC1+D, Dose Response: With dose response, Evaluation Type: Evaluation A (Pre-1980)) is “active; positive”; the mutagenic call under setting [4] is listed as “no conclusion”; the mutagenic call (Species/Cell Type: Mammalian polychromatic erythrocytes, Assay Type: Micronucleus test, chromosome aberrations, Assay Code: MNTT, Evaluation Type: Evaluation B (Post-1980)) was “no conclusion”; the mutagenic call (Species/Cell Type: Mouse (C3H/10T1/2) cells, Assay Type: Cell transformation, Assay Code: CTH-, Evaluation Type: Evaluation A (Pre-1980)) is “inactive; negative”; the mutagenic call (Species/Cell Type: Mouse lymphoma (L5178Y) cells, Assay Type: Forward gene mutation at the thymidine kinase (TK) locus, chromosome aberrations, Assay Code: L51T, Evaluation Type: Evaluation A (Pre-1980)) is “no conclusion”. For the same compound, the mutagenic call was “inactive; negative” (Species/Cell Type: Mouse, Sex: Male, Assay Type: Sperm morphology, Assay Code: SPI-, Evaluation Type: Evaluation A (Pre-1980)); “inactive; negative” (Species/Cell Type: Neurospora crassa, Assay Type: Aneuploidy, chromosome aberrations, Assay Code: NEN-, Evaluation Type: Evaluation A (Pre-1980)); “active; positive” (Species/Cell Type: Nonhuman, Assay Type: Sister-chromatid exchange (SCE) in vitro, Assay Code: SC2+D, Dose Response: With dose response, Evaluation Type: Evaluation A (Pre-1980)); “active; positive” (Species/Cell Type: Nonhuman, Assay Type: Sister-chromatid exchange (SCE) in vivo, Assay Code: SC3+D, Dose Response: With dose response, Evaluation Type: Evaluation B (Post-1980)); “active; positive” (Species/Cell Type: Rodents, Sex: Male, Assay Type: Dominant lethal test, Assay Code: DLT+, Evaluation Type: Evaluation A (Pre-1980)); “active; positive” (Species/Cell Type: Saccharomyces cerevisiae, Assay Type: Aneuploidy, chromosome aberrations, Assay Code: YEN+, Evaluation Type: Evaluation A (Pre-1980)). Further, the mutagenic call is “active; positive” under setting [5]; “inactive; positive without activation, negative with activation” (Species/Cell Type: Saccharomyces cerevisiae, Assay Type: Mitotic recombination or gene conversion, Assay Code: YEH+/-*, Activation: With metabolic activation, Evaluation Type: Evaluation A (Pre-1980)); “active; positive” (Species/Cell Type: Saccharomyces cerevisiae, Assay Type: Reverse gene mutation, Assay Code: YER+, Evaluation Type: Evaluation A (Pre-1980)); “inactive; negative” (Species/Cell Type: Salmonella typhimurium (one or more of the five standard strains: TA98, TA100, TA1535, TA1537, and TA1538), Assay Type: Histidine reverse gene mutation, Ames assay, Assay Code: SAL-, Evaluation Type: Evaluation A (Pre-1980)); “active; positive” (Species/Cell Type: Salmonella typhimurium, Assay Type: Forward and reverse gene mutation, body fluid assay, Assay Code: BFU+, Evaluation Type: Evaluation A (Pre-1980)); “active; positive” (Species/Cell Type: Salmonella typhimurium, Assay Type: Forward and reverse gene mutation, host-mediated assay, Assay Code: HMA+, Evaluation Type: Evaluation A (Pre-1980)). Besides, where the note is “Species/Cell Type: Syrian hamster embryo (SHE) cells, Assay Type: Cell transformation, clonal assay, Assay Code: CTC-, Evaluation Type: Evaluation A (Pre-1980)”, the mutagenic call is “inactive; negative”.
On to `C/C=C1/C[C@@H](C)[C@@](C)(O)C(=O)OCC2=CCN3CC[C@@H](OC1=O)[C@@H]23`, for which the mutagenic call under setting [1] was “active; positive”.
In the case of `NC1CCSC1=O` (configuration not stated), the mutagenic call reads like this: under setting [3], “no conclusion”; under setting [4], “no conclusion”.
`CCC(C)c1ccccc1OC(=O)NC` (configuration not stated): the mutagenic call reads like this: (Species/Cell Type: Bacillus subtilis (H17 vs M45T), Assay Type: Rec-assay, spot test, DNA effects (bacterial DNA repair), Assay Code: REX-, Evaluation Type: Evaluation A (Pre-1980)) “inactive; negative”; (Species/Cell Type: Escherichia coli WP2, Assay Type: Tryptophan reverse gene mutation, Assay Code: WP2-, Evaluation Type: Evaluation A (Pre-1980)) “inactive; negative”.
`Cc1c2ccccc2cc2c3c(ccc12)C=CC(O)C3O` (configuration not stated): the mutagenic call under setting [6] is “active; positive”.
Turning to `OC/C=C/c1ccc2c(c1)OCO2`, the mutagenic call under setting [7] is on record as “no conclusion”.
In the case of `Nc1ccc(N=Nc2ccccc2)c(N)n1`, the call under setting [8] is “active; positive”.
`COC(=O)[C@H]1[C@H]2C[C@@H]3c4[nH]c5cc(OC)ccc5c4CCN3C[C@H]2C[C@@H](OC(=O)c2cc(OC)c(OC)c(OC)c2)[C@@H]1OC`: the mutagenic call (Species/Cell Type: Aspergillus nidulans, Assay Type: Aneuploidy, chromosome aberrations, Assay Code: ASNT, Evaluation Type: Evaluation A (Pre-1980)) is “no conclusion”. The call under setting [8] was “active; positive”.
In the case of `CCCSP(=S)(OCC)Oc1ccc(SC)cc1` (configuration not stated), under setting [9], the mutagenic call is “no conclusion”.
As to `CCCCCc1cc(O)c2c(c1)OC(C)(C)c1ccc(C)cc1-2`, the mutagenic call is, setting by setting: (Species/Cell Type: Fischer rat embryo (RLV/1706) cells, Assay Type: Cell transformation, viral enhanced, Assay Code: CTR-, Evaluation Type: Evaluation A (Pre-1980)) “inactive; negative”; (Species/Cell Type: Human lymphocytes, Assay Type: Sister-chromatid exchange (SCE) in vivo, Assay Code: SCY+, Evaluation Type: Evaluation B (Post-1980)) “active; positive”; (Species/Cell Type: Mammalian polychromatic erythrocytes, Assay Type: Micronucleus test, chromosome aberrations, Assay Code: MNT+, Evaluation Type: Evaluation B (Post-1980)) “active; positive”; (Species/Cell Type: Mouse, Sex: Male, Assay Type: Sperm morphology, Assay Code: SPI+, Evaluation Type: Evaluation A (Pre-1980)) “active; positive”.
Consider `CC(=O)[O-].CC(=O)[O-].CC(=O)[O-].[Cr+3]`, for which the mutagenic call is recorded as “no conclusion” (Species/Cell Type: Chinese hamster ovary (CHO) cells, Assay Type: Forward gene mutation at the HPRT locus, Assay Code: CHOT, Evaluation Type: Evaluation B (Post-1980)) and “no conclusion” under setting [9].
Turning to `Cc1ccc2ccccc2n1`, the mutagenic call under setting [6] is “active; positive”.
For the compound `COc1cc2c(c3oc(=O)c4c(c13)CCOC4=O)C1C=COC1O2` (configuration not stated), the mutagenic call (Species/Cell Type: Aspergillus nidulans, Assay Type: Forward gene mutation, Assay Code: ASF+*, Activation: With metabolic activation, Evaluation Type: Evaluation A (Pre-1980)) is “active; positive”; the mutagenic call (Species/Cell Type: Drosophila melanogaster, Assay Type: Sex-linked recessive lethal gene mutation, Assay Code: SRLT, Evaluation Type: Evaluation A (Pre-1980)) is listed as “no conclusion”; the mutagenic call under setting [2] was “no conclusion”; the mutagenic call (Species/Cell Type: Human lymphocytes or leukocytes, Assay Type: Chromosome aberrations in vitro, Assay Code: CY7T, Evaluation Type: Evaluation A (Pre-1980)) is “no conclusion”; the mutagenic call (Species/Cell Type: Vicia faba, Assay Type: Chromosome aberrations, Assay Code: VIC+, Evaluation Type: Evaluation A (Pre-1980)) is “active; positive”.
Consider `c1ccc2c(c1)-c1ccc3ccccc3c1C1OC21` (configuration not stated), for which the mutagenic call runs as follows: (Species/Cell Type: Mouse prostate cells, Assay Type: Cell transformation, Assay Code: CTM-, Evaluation Type: Evaluation A (Pre-1980)) “inactive; negative”; (Species/Cell Type: Salmonella typhimurium (one or more of the five standard strains: TA98, TA100, TA1535, TA1537, and TA1538), Assay Type: Histidine reverse gene mutation, Ames assay, Assay Code: SAL+, Evaluation Type: Evaluation A (Pre-1980)) “active; positive”; (Species/Cell Type: Syrian hamster embryo (SHE) cells, Assay Type: Cell transformation, clonal assay, Assay Code: CTC+, Evaluation Type: Evaluation A (Pre-1980)) “active; positive”.
Take `Oc1c(Cl)cc(Cl)c2cccnc12`: under setting [7], the mutagenic call is recorded as “no conclusion”.
Consider `CN(C)N=Nc1ccc(Cl)cc1`, for which the mutagenic call runs as follows: under setting [1], “active; positive”; (Species/Cell Type: Mammalian polychromatic erythrocytes, Assay Type: Micronucleus test, chromosome aberrations, Assay Code: MNT+, Evaluation Type: Evaluation A (Pre-1980)) “active; positive”; under setting [5], “active; positive”.
Turning to `O=NN(CCCl)C(=O)NCCO`, the mutagenic call is, setting by setting: under setting [1], “active; positive”; under setting [5], “active; positive”.
